{"source": "patent US20040024055A1", "about": "“Pharmaceutical composition containing the exract of saururus chinensis baill useful as an anticancer agent and a process for the preparation thereof” (priority 2000, published 2004)", "key": {"SK-OV-3": {"tested_on": "SK-OV-3", "experiment": "MTT analysis, anticancer activity", "format": "cell-based, human", "conditions": "Homo sapiens, SK-OV-3; MTT, 48 hr"}, "NIH-3T3 [1]": {"tested_on": "NIH-3T3", "experiment": "Adhesion of cell to Laminin", "format": "cell-based, mouse", "protocol": "(§1) After treating HNP-98701 on tissue culture plate coated with the matrices, cancer cell was attached thereupon. To be specific, 50 μl/ml of […], 2 μg/ml of laminin, 2 μg/ml of collagen and 2 μg/ml of gelatin were coated on the surface of 96-well microplate (Corning Co.) per well. After solidifying for 2 hr, HNP-98701 was added to each well and treated for 1 hr. […] After treating the substances for 1 hr, cancer cell was added to each cell, and it was cultured for 3 hr. […] After culturing these cell lines for 3 hr, they were centrifuged. After collecting biomass only, it was washed with distilled water or PBS buffer solution for three times. […] Then, absorbance was measured at 560-405 nm with automatic Eliza detector (Molecular […] Corp., USA). […] Each experiment was performed for three times repeatedly."}, "CPAE": {"tested_on": "CPAE", "experiment": "MTT analysis, cytotoxicity against normal cell line", "format": "cell-based, bovine", "conditions": "Bos taurus; MTT, 48 hr"}, "[2]": {"tested_on": "SK-Hep-1 liver cancer cell line", "experiment": "MTT analysis, anticancer activity", "format": "cell-based, human", "conditions": "Homo sapiens, SK-HEP1, 48 hr"}, "HT-29": {"tested_on": "HT-29", "experiment": "MTT analysis, anticancer activity", "format": "cell-based, human", "conditions": "Homo sapiens, HT-29; MTT, 48 hr"}, "SK-Hep-1 [3]": {"tested_on": "SK-Hep-1", "experiment": "Adhesion of cancer cell to Matri-Gel", "format": "cell-based, human", "protocol": "as §1"}, "HT1080": {"tested_on": "HT1080", "experiment": "MTT analysis, anticancer activity", "format": "cell-based, human", "conditions": "Homo sapiens, HT-1080, 48 hr"}, "T-47D": {"tested_on": "T-47D", "experiment": "MTT analysis, anticancer activity", "format": "cell-based, human", "conditions": "Homo sapiens, T47D, 48 hr"}, "LoVo": {"tested_on": "LoVo", "experiment": "MTT analysis, anticancer activity", "format": "cell-based, human", "conditions": "Homo sapiens, LoVo; MTT, 48 hr"}, "CHO": {"tested_on": "CHO", "experiment": "MTT analysis, cytotoxicity against normal cell line", "format": "cell-based, Chinese hamster", "conditions": "Cricetulus griseus, CHO; MTT, 48 hr"}, "NIH-3T3 [4]": {"tested_on": "NIH-3T3", "experiment": "Adhesion of cell to Collagen", "format": "cell-based, mouse", "protocol": "as §1"}, "T98G": {"tested_on": "T98G", "experiment": "MTT analysis, anticancer activity", "format": "cell-based, human", "conditions": "Homo sapiens, T98G, 48 hr"}, "NIH-3T3 [5]": {"tested_on": "NIH-3T3", "experiment": "Adhesion of cell to Gelatin", "format": "cell-based, mouse", "protocol": "as §1"}, "[6]": {"tested_on": "DU-145 prostate cancer cell line", "experiment": "MTT analysis, anticancer activity", "format": "cell-based, human", "conditions": "Homo sapiens, DU-145, 48 hr"}, "HeLa": {"tested_on": "HeLa", "experiment": "MTT analysis, anticancer activity", "format": "cell-based, human", "conditions": "Homo sapiens, HeLa, 48 hr"}, "HS-578T": {"tested_on": "HS-578T", "experiment": "MTT analysis, anticancer activity", "format": "cell-based, human", "conditions": "Homo sapiens, Hs-578T; MTT, 48 hr"}, "SK-Hep-1 [7]": {"tested_on": "SK-Hep-1", "experiment": "Adhesion of cancer cell to Collagen", "format": "cell-based, human", "protocol": "as §1"}, "SK-MEL-28 [8]": {"tested_on": "SK-MEL-28", "experiment": "Adhesion of cancer cell to Collagen", "format": "cell-based, human", "protocol": "as §1"}, "Hep-2 [9]": {"tested_on": "Hep-2", "experiment": "Adhesion of cancer cell to Collagen", "format": "cell-based, human", "protocol": "as §1"}, "BT-20": {"tested_on": "BT-20", "experiment": "MTT analysis, anticancer activity", "format": "cell-based, human", "conditions": "Homo sapiens, BT-20, 48 hr"}, "Hep-2 [10]": {"tested_on": "Hep-2", "experiment": "MTT analysis, anticancer activity", "format": "cell-based, human", "conditions": "Homo sapiens, HEp-2; MTT, 48 hr; read-out: IC50 Hep-2"}, "NIH-3T3 [11]": {"tested_on": "NIH-3T3", "experiment": "MTT analysis, cytotoxicity against normal cell line", "format": "cell-based, mouse", "conditions": "Mus musculus, NIH3T3; MTT, 48 hr"}, "ME-180": {"tested_on": "ME-180", "experiment": "MTT analysis, anticancer activity", "format": "cell-based, human", "conditions": "Homo sapiens, ME-180; MTT, 48 hr"}, "KATO-III": {"tested_on": "KATO-III", "experiment": "MTT analysis, anticancer activity", "format": "cell-based, human", "conditions": "Homo sapiens, KATO III; MTT, 48 hr; read-out: IC50 KATO-III"}, "HS683": {"tested_on": "HS683", "experiment": "MTT analysis, anticancer activity", "format": "cell-based, human", "conditions": "Homo sapiens, Hs 683, 48 hr"}, "SK-N-SH": {"tested_on": "SK-N-SH", "experiment": "MTT analysis, anticancer activity", "format": "cell-based, human", "conditions": "Homo sapiens, SK-N-SH, 48 hr"}, "SK-Hep-1 [12]": {"tested_on": "SK-Hep-1", "experiment": "Adhesion of cancer cell to Laminin", "format": "cell-based, human", "protocol": "as §1"}, "SK-MEL-28 [13]": {"tested_on": "SK-MEL-28", "experiment": "Adhesion of cancer cell to Laminin", "format": "cell-based, human", "protocol": "as §1"}, "Hep-2 [14]": {"tested_on": "Hep-2", "experiment": "Adhesion of cancer cell to Laminin", "format": "cell-based, human", "protocol": "as §1"}, "MCF-7": {"tested_on": "MCF-7", "experiment": "MTT analysis, anticancer activity", "format": "cell-based, human", "conditions": "Homo sapiens, MCF7; MTT, 48 hr; read-out: IC50 MCF-7"}, "3T3-L1": {"tested_on": "3T3-L1", "experiment": "MTT analysis, cytotoxicity against normal cell line", "format": "cell-based, mouse", "conditions": "Mus musculus, 3T3-L1; MTT, 48 hr"}, "[15]": {"tested_on": "PC-3 prostate cancer cell line", "experiment": "MTT analysis, anticancer activity", "format": "cell-based, human", "conditions": "Homo sapiens, 48 hr", "experimental": "To be specific, SK-Hep-1 cell, which is liver cancer cell line, was added to 96-well microplate (Falcon, USA) with the concentration of 3×10^5 cells/ml by 100 μl per well. Each extracted and separated substance dissolved in DMSO was added to the well by 100 μl for the final concentration to be from 50 μg/ml to 0.0244 μg/ml, with 200 μl of final volume. Each cell was cultured for 48 hr in a culture medium of 37° C. and 5% CO2. After cultivation, 20 μl of phosphate buffer solution containing 5 mg/ml of MTT (3-[4,5-dimethylthiazol-2-yl]-2,5-diphenyltetrazoliumbromide, Sigma Co.) reagent was added to each well, and then cultured for 4 hr. After taking 100 μl of supernant from each culture medium, 100 μl of 0.04N hydrochloric acid-isopropanol was added. After letting alone overnight, absorbance was measured at 560 nm using automatic Eliza detector (Molecular Divices Corp., USA). Anticancer activity of each extracted and separated substance was calculated from the absorbance value by Equation 1 and was expressed in terms of cell.\nAverage Existence Rate(%)=(Absorbance of Treated Group)/(Absorbance of Control Group)×100"}}, "data": [{"smiles": "COc1cccc2c1C(=O)c1c(O)c3c(c(O)c1C2=O)C[C@@](O)(C(=O)CO)C[C@@H]3O[C@H]1C[C@H](N)[C@H](O)[C@H](C)O1", "note": "[Adriamycin, adriamycin (doxorubicin)]", "values": [{"measurement": "IC50", "setting": "SK-OV-3", "value": "> 50", "unit": "µg/mL"}, {"measurement": "Adhesion NIH-3T3 (%)", "setting": "NIH-3T3 [1]; 0.1 μg/ml", "value": 107.38, "unit": "%"}, {"measurement": "Adhesion NIH-3T3 (%)", "setting": "NIH-3T3 [1]; 1 μg/ml", "value": 103.07, "unit": "%"}, {"measurement": "Adhesion NIH-3T3 (%)", "setting": "NIH-3T3 [1]; 10 μg/ml", "value": 91.63, "unit": "%"}, {"measurement": "IC50", "setting": "CPAE", "value": 0.0208, "unit": "µg/mL"}, {"measurement": "IC50", "setting": "[2]", "value": 0.282, "unit": "µg/mL"}, {"measurement": "IC50", "setting": "HT-29", "value": 0.413, "unit": "µg/mL"}, {"measurement": "Adhesion SK-Hep-1 (%)", "setting": "SK-Hep-1 [3]; 0.1 μg/ml", "value": 99.04, "unit": "%"}, {"measurement": "Adhesion SK-Hep-1 (%)", "setting": "SK-Hep-1 [3]; 1 μg/ml", "value": 95.93, "unit": "%"}, {"measurement": "Adhesion SK-Hep-1 (%)", "setting": "SK-Hep-1 [3]; 10 μg/ml", "value": 88.74, "unit": "%"}, {"measurement": "IC50", "setting": "HT1080", "value": 0.719, "unit": "µg/mL"}, {"measurement": "IC50", "setting": "T-47D", "value": 0.255, "unit": "µg/mL"}, {"measurement": "IC50", "setting": "LoVo", "value": 0.0538, "unit": "µg/mL"}, {"measurement": "IC50", "setting": "CHO", "value": 5.22, "unit": "µg/mL"}, {"measurement": "Adhesion NIH-3T3 (%)", "setting": "NIH-3T3 [4]; 0.1 μg/ml", "value": 111.98, "unit": "%"}, {"measurement": "Adhesion NIH-3T3 (%)", "setting": "NIH-3T3 [4]; 1 μg/ml", "value": 109.97, "unit": "%"}, {"measurement": "Adhesion NIH-3T3 (%)", "setting": "NIH-3T3 [4]; 10 μg/ml", "value": 111.13, "unit": "%"}, {"measurement": "IC50", "setting": "T98G", "value": 1.61, "unit": "µg/mL"}, {"measurement": "Adhesion NIH-3T3 (%)", "setting": "NIH-3T3 [5]; 0.1 μg/ml", "value": 108.67, "unit": "%"}, {"measurement": "Adhesion NIH-3T3 (%)", "setting": "NIH-3T3 [5]; 1 μg/ml", "value": 108.86, "unit": "%"}, {"measurement": "Adhesion NIH-3T3 (%)", "setting": "NIH-3T3 [5]; 10 μg/ml", "value": 105.81, "unit": "%"}, {"measurement": "IC50", "setting": "[6]", "value": "> 50", "unit": "µg/mL"}, {"measurement": "IC50", "setting": "HeLa", "value": 0.703, "unit": "µg/mL"}, {"measurement": "IC50", "setting": "HS-578T", "value": 0.469, "unit": "µg/mL"}, {"measurement": "Adhesion SK-Hep-1 (%)", "setting": "SK-Hep-1 [7]; 0.1 μg/ml", "value": 98.83, "unit": "%"}, {"measurement": "Adhesion SK-Hep-1 (%)", "setting": "SK-Hep-1 [7]; 1 μg/ml", "value": 97.89, "unit": "%"}, {"measurement": "Adhesion SK-Hep-1 (%)", "setting": "SK-Hep-1 [7]; 10 μg/ml", "value": 103.28, "unit": "%"}, {"measurement": "Adhesion SK-MEL-28 (%)", "setting": "SK-MEL-28 [8]; 0.1 μg/ml", "value": 94.27, "unit": "%"}, {"measurement": "Adhesion SK-MEL-28 (%)", "setting": "SK-MEL-28 [8]; 1 μg/ml", "value": 94.49, "unit": "%"}, {"measurement": "Adhesion SK-MEL-28 (%)", "setting": "SK-MEL-28 [8]; 10 μg/ml", "value": 94.71, "unit": "%"}, {"measurement": "Adhesion Hep-2 (%)", "setting": "Hep-2 [9]; 0.1 μg/ml", "value": 91.10, "unit": "%"}, {"measurement": "Adhesion Hep-2 (%)", "setting": "Hep-2 [9]; 1 μg/ml", "value": 93.11, "unit": "%"}, {"measurement": "Adhesion Hep-2 (%)", "setting": "Hep-2 [9]; 10 μg/ml", "value": 88.85, "unit": "%"}, {"measurement": "IC50", "setting": "BT-20", "value": 0.131, "unit": "µg/mL"}, {"measurement": "IC50", "setting": "Hep-2 [10]", "value": 0.087, "unit": "µg/mL"}, {"measurement": "IC50", "setting": "NIH-3T3 [11]", "value": 0.496, "unit": "µg/mL"}, {"measurement": "IC50", "setting": "ME-180", "value": 0.108, "unit": "µg/mL"}, {"measurement": "IC50", "setting": "KATO-III", "value": 0.342, "unit": "µg/mL"}, {"measurement": "IC50", "setting": "HS683", "value": 0.205, "unit": "µg/mL"}, {"measurement": "IC50", "setting": "SK-N-SH", "value": 0.207, "unit": "µg/mL"}, {"measurement": "Adhesion SK-Hep-1 (%)", "setting": "SK-Hep-1 [12]; 0.1 μg/ml", "value": 96.18, "unit": "%"}, {"measurement": "Adhesion SK-Hep-1 (%)", "setting": "SK-Hep-1 [12]; 1 μg/ml", "value": 96.92, "unit": "%"}, {"measurement": "Adhesion SK-Hep-1 (%)", "setting": "SK-Hep-1 [12]; 10 μg/ml", "value": 95.86, "unit": "%"}, {"measurement": "Adhesion SK-MEL-28 (%)", "setting": "SK-MEL-28 [13]; 0.1 μg/ml", "value": 108.40, "unit": "%"}, {"measurement": "Adhesion SK-MEL-28 (%)", "setting": "SK-MEL-28 [13]; 1 μg/ml", "value": 109.66, "unit": "%"}, {"measurement": "Adhesion SK-MEL-28 (%)", "setting": "SK-MEL-28 [13]; 10 μg/ml", "value": 113.03, "unit": "%"}, {"measurement": "Adhesion Hep-2 (%)", "setting": "Hep-2 [14]; 0.1 μg/ml", "value": 106.76, "unit": "%"}, {"measurement": "Adhesion Hep-2 (%)", "setting": "Hep-2 [14]; 1 μg/ml", "value": 105.13, "unit": "%"}, {"measurement": "Adhesion Hep-2 (%)", "setting": "Hep-2 [14]; 10 μg/ml", "value": 98.75, "unit": "%"}, {"measurement": "IC50", "setting": "MCF-7", "value": 0.134, "unit": "µg/mL"}, {"measurement": "IC50", "setting": "3T3-L1", "value": 2, "unit": "µg/mL"}, {"measurement": "IC50", "setting": "[15]", "value": 0.575, "unit": "µg/mL"}]}]}
